Source: patent US7670613B2, “Androgen modulators” (Pfizer Inc., priority 2004, dated 2010)

Legend:
[1] = test system: male Syrian hamsters; assay: Animal model for inhibition of sebum production (hamster ear); assay type: in vivo, Syrian hamster; conditions: topical 3.0 w/v %; for % CE reduction: cholesterol ester vs vehicle control; for % CE reduction / % WE reduction: twice daily, five days a week, 4 weeks, right ear; for Sum of WE & CE: sum of % WE and % CE reduction; for % WE reduction: wax ester vs vehicle control
Description: Animal Model for Inhibition of Sebum Production
Luderschmidt et al describes an animal model for testing whether compounds are capable of modulating sebum secretion. Arch. Derm. Res. 258, 185-191 (1977). This model uses male Syrian hamsters, whose ears contain sebaceous glands. The product of Example 14 was screened in this model.
Testing for sebum inhibition was carried out in the following manner. Male Syrian hamsters aged 9 to 10 weeks were introduced into the laboratory environment and acclimated for 2 weeks prior to use in the study. Each group consisted of 5 animals and run in parallel with vehicle and positive controls. Prior to administration, a sufficient quantity each compound was dissolved in 1 mL of a solvent consisting of ethanol, and propylene glycol (70/30% v/v) to achieve a final concentration of 3.0 w/v %.
Animals were dosed topically twice daily, five days a week, for 4 weeks. Each dose consisted of 25 micro liters of vehicle control or drug. The dose was applied to the ventral surfaces of both the right and left ears. All animals were sacrificed approximately 18-24 hours after the final dose. The right ears were collected from each animal and used for sebum analysis.
The ears were prepped for HPLC analysis in the following manner. One 8 mm distal biopsy punch was taken, just above the anatomical “V” mark in the ear to normalize the sample area. The punch was pulled apart. The ventral biopsy surface (the area where the topical dose was directly applied to the sebaceous glands) was retained for testing and the dorsal surface of the biopsy punch was discarded.
Tissue samples were blown with N2 gas and stored at −80° C. under nitrogen until HPLC analysis. In addition to ear samples, an aliquot of each drug and vehicle (at least 250 ul) was also stored at −80° C. for inclusion in the HPLC analysis.
HPLC analysis was carried out on an extract of the tissue sample. Tissue samples were contacted with 3 ml of solvent (a 4:1 admixture of 2,2,4-trimethylpentane and isopropyl alcohol). The mixture was shaken for 15 minutes and stored overnight at room temperature, protected from light. The next morning 1 milliliter of water was added to the sample and shaken for 15 minutes. The sample was then centrifuged at approximately 1500 rpm for 15 minutes. Two ml of the organic phase (top layer) was transferred to a glass vial, dried at 37° C., under nitrogen, for approximately 1 hour, and then lyophilized for approximately 48 hours. The samples were then removed from the lyophilizer and each vial was reconstituted with 600 μl of solvent A (trimethylpentane/tetrahydrofuran (99:1). The samples were then recapped and vortexed for 5 minutes.
200 μl of each sample was then transferred to a pre-labeled 200 μl HPLC vial with 200 μL glass inserts. The HPLC vials were placed in the autosampler tray for the Agilent 1100 series HPLC unit. The Agilent 1100 HPLC system consisted of a thermostated autosampler, a quarternary pump, a column heater, and an A/D interface module. All components were controlled by Agilent ChemStation software. A Waters Spherisorb S3W 4.6×100 mm analytical column was maintained at 30° C. by the Agilent column heater unit. The HPLC autosampler was programmed to maintain the sample temperature at 20 C. throughout the run.
10 uL of each sample was injected in triplicate into the column. Two solvents were used for the solvent gradient. Solvent A was an admixture of trimethylpentane and tetrahydrofuran (99:1). Solvent B was ethylacetate. The gradient utilized is described in the table below: […]
The Sedex 75 Evaporative Light Scattering Detector (ELSD) was operated at 45° C. with a gain of 5, and N2 pressure maintained at 3.1 bar. Analog signal obtained by the instrument was sent to the Agilent A/D interface module where it was converted to a digital output. The conversion was based on a 10000 mAU/volt set point and the data rate was set at 10 Hz (0.03 min). […]

[2] = test system: male C3H/HeN mice; assay: Modified telogen conversion assay; assay type: in vivo, mouse; conditions: topical 1% and 3% w/v, twice daily for 4 weeks, observed 35 days or longer
Excerpt: The telogen conversion assay measures the potential of a compound to convert the resting stage of the hair growth cycle (“telogen”) to the active stage of the hair growth cycle (“anagen”) in mice. This assay takes advantage of the fact that the fur (i.e. hair) of 7-week-old C3H/HeN mice is in the telogen phase. This phase continues until about 75 days of age. In this assay, selected areas of the mice are shaved, contacted with a test agent, or a control, and the difference in the rate of hair growth is measured (i.e. induction of the anagen phase). The first sign of anagen is the darkening of skin color as melanocytes in the follicles start to synthesize melanin, in preparation for the production of pigmented hairs. This model has a number of advantages. This includes the ready availability of female CH3HeN mice, the ability to screen large numbers of compounds quickly, and the ease of housing and handling such animals.
It has been discovered that male C3H/HeN mice may be used in the telogen conversion assay, when evaluating anti-androgen test compounds. Thus, the model relates to a modification of the existing telogen conversion assay. […]
The treatment area was observed and graded every other day for signs of hair growth. The hair growth response was quantified by recording, for each animal, the day on which signs of hair growth first appeared over the treated area. […]

Structure (SMILES) | % CE reduction [1] | Sum of WE & CE [1] | % WE reduction [1] | Initiation of anagen (first signs of hair growth) versus vehicle control [2]
N#Cc1ccc(O[C@@H]2CCCC[C@H]2C#N)cc1C(F)(F)F (single isomer, unassigned) [Example 72, (trans)-(−)-4-(2-Cyano-cyclohexyloxy)-2-trifluoromethyl-benzonitrile] | 68% | 153 | 85% | 
CC1CCCCC1Oc1ccc(C#N)c(C(F)(F)F)c1 (stereo not shown) [Example 8, 4-(2-Methyl-cyclohexyloxy)-2-trifluoromethyl-benzonitrile] |  |  |  | not initiated in either of the test groups prior to its occurrence in the vehicle control group
N#Cc1ccc(O[C@@H]2CCCCC2C#N)cc1C(F)(F)F (stereo in doubt) [Example 14, -4-(2-Cyano-cyclohexyloxy)-2-trifluoromethyl-benzonitrile] | 84% | 179 | 95% | 
